{
  "source": "patent US7659245B2",
  "about": "“Macrocylic inhibitors of hepatitis C virus” (Tibotec Pharmaceuticals Ltd, priority 2005, dated 2010)",
  "key": {"[1]": {"details": "rcm bond, DCE"}, "[2]": {"details": "rcm bond, 14-membered ring, Hoveyda-Grubbs II, DCE"}, "[3]": {"tested_on": "HCV replicons (Huh-7 luc/neo cells, NS3-NS5B regions of HCV type 1b)", "assay": "Replicon assay: inhibition of HCV RNA replication in Huh-Luc cells (luciferase read-out)", "type": "cell-based", "details": "Hepatitis C virus, Huh-7, 72 h, HCV type 1b replicon, luciferase activity after three days", "procedure": "The in vitro antiviral activity against HCV of the compounds of formula (I) was tested in a cellular HCV replicon system based on Lohmann et al. (1999) Science 285:110-113, with the further modifications described by Krieger et al. (2001) Journal of Virology 75: 4614-4624 (incorporated herein by reference), which is further exemplified in the examples section. This model, while not a complete infection model for HCV, is widely accepted as the most robust and efficient model of autonomous HCV RNA replication currently available. […] It will be appreciated that it is important to distinguish between compounds that specifically interfere with HCV functions from those that exert cytotoxic or cytostatic effects in the HCV replicon model, and as a consequence cause a decrease in HCV RNA or linked reporter enzyme concentration. Assays are known in the field for the evaluation of cellular cytotoxicity based for example on the activity of mitochondrial enzymes using fluorogenic redox dyes such as resazurin. Furthermore, cellular counter screens exist for the evaluation of non-selective inhibition of linked reporter gene activity, such as firefly luciferase. Appropriate cell types can be equipped by stable transfection with a luciferase reporter gene whose expression is dependent on a constitutively active gene promoter, and such cells can be used as a counter-screen to eliminate non-selective inhibitors.\nThe compounds of formula (I) were examined for activity in the inhibition of HCV RNA replication in a cellular assay. […] The cellular assay was based on a bicistronic expression construct, as described by Lohmann et al. (1999) Science vol. 285 pp. 110-113 with modifications described by Krieger et al. (2001) Journal of Virology 75: 4614-4624, in a multi-target screening strategy. In essence, the method was as follows.\nThe assay utilized the stably transfected cell line Huh-7 luc/neo (hereafter referred to as Huh-Luc). This cell line harbors an RNA encoding a bicistronic expression construct comprising the wild type NS3-NS5B regions of HCV type 1b translated from an Internal Ribosome Entry Site (IRES) from encephalomyocarditis virus (EMCV), preceded by a reporter portion (FfL-luciferase), and a selectable marker portion (neo^R, neomycine phosphotransferase). The construct is bordered by 5′ and 3′ NTRs (non-translated regions) from HCV type 1b. Continued culture of the replicon cells in the presence of G418 (neo^R) is dependent on the replication of the HCV RNA. The stably transfected replicon cells that express HCV RNA, which replicates autonomously and to high levels, encoding inter alia luciferase, are used for screening the antiviral compounds.\nThe replicon cells were plated in 384 well plates in the presence of the test and control compounds which were added in various concentrations. Following an incubation of three days, HCV replication was measured by assaying luciferase activity (using standard luciferase assay substrates and reagents and a Perkin Elmer ViewLux™ ultraHTS microplate imager). Replicon cells in the control cultures have high luciferase expression in the absence of any inhibitor. The inhibitory activity of the compound on luciferase activity was monitored on the Huh-Luc cells, enabling a dose-response curve for each test compound. EC50 values were then calculated, which value represents the amount of the compound required to decrease by 50% the level of detected luciferase activity, or more specifically, the ability of the genetically linked HCV replicon RNA to replicate."}, "[4]": {"target": "full-length hepatitis C NS3 protease enzyme (HCV NS3/4A protease complexes) (Hepatitis C virus genotype 1a, UniProt P27958)", "sequence (P27958 1027-1657, one chain of several)": "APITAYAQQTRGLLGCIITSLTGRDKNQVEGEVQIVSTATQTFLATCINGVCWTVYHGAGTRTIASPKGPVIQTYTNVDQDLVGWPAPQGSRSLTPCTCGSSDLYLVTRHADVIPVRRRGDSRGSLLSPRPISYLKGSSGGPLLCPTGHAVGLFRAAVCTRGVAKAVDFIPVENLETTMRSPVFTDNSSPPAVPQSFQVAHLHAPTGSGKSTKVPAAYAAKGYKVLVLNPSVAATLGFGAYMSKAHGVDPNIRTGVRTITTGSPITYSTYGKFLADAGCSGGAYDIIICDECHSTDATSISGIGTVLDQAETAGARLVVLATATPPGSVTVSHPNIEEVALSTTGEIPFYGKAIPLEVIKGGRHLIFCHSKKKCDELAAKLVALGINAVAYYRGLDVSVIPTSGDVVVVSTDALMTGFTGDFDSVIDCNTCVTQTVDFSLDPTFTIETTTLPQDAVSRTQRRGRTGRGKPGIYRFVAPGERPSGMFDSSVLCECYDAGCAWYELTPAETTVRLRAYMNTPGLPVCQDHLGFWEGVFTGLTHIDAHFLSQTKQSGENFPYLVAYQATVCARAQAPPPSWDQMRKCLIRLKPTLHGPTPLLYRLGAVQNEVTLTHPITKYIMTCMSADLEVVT", "assay": "Inhibition assay (enzymatic assay) of HCV NS3/4A protease", "type": "biochemical", "details": "enzyme 1 nM, 25 μM NS4A cofactor, 0.5 μM depsipeptide substrate, 30° C., competitive model", "procedure": "The aim of this in vitro assay is to measure the inhibition of HCV NS3/4A protease complexes by the compounds of the present invention. This assay provides an indication of how effective compounds of the present invention would be in inhibiting HCV NS3/4A proteolytic activity.\nThe inhibition of full-length hepatitis C NS3 protease enzyme was measured essentially as described in Poliakov, 2002 Prot Expression & Purification 25 363 371. Briefly, the hydrolysis of a depsipeptide substrate, Ac-DED(Edans)EEAbuψ[COO]ASK(Dabcyl)-NH2 (AnaSpec, San José, USA), was measured spectrofluorometrically in the presence of a peptide cofactor, KKGSVVIVGRIVLSGK (Åke Engström, Department of Medical Biochemistry and Microbiology, Uppsala University, Sweden). [Landro, 1997 #Biochem 36 9340-9348]. The enzyme (1 nM) was incubated in 50 mM HEPES, pH 7.5, 10 mM DTT, 40% glycerol, 0.1% n-octyl-D-glucoside, with 25 μM NS4A cofactor and inhibitor at 30° C. for 10 min, whereupon the reaction was initiated by addition of 0.5 μM substrate. Inhibitors were dissolved in DMSO, sonicated for 30 sec. and vortexed. The solutions were stored at −20° C. between measurements.\nThe final concentration of DMSO in the assay sample was adjusted to 3.3%. The rate of hydrolysis was corrected for inner filter effects according to published procedures. [Liu, 1999 Analytical Biochemistry 267 331-335]. Ki values were estimated by non-linear regression analysis (GraFit, Erithacus Software, Staines, MX, UK), using a model for competitive inhibition and a fixed value for Km (0.15 μM). A minimum of two replicates was performed for all measurements."}, "[5]": {"details": "14-membered ring, Hoveyda-Grubbs I, with chain assembly"}},
  "note": "Where two headings read alike, the source gives them in different places.",
  "data": [
    {"molecule": "17-(7-Methoxy-2-phenyl-quinazolin-4-yloxy-13-methyl-2,14-dioxo-3,13-diazatricyclo[13.3.0.0*4,6*]octadec-7-ene-4-carboxylic acid ethyl ester", "values": [
      {"measurement": "ring closure, isolated yield", "setting": "[1]; 14-membered ring, Hoveyda-Grubbs I, 1.1 mM", "value": 40, "unit": "%"}
    ]},
    {"molecule": "CCOC(=O)C12CC1C=CCCCCCN(Cc1ccc(OC)cc1)C(=O)N1CC(OC(=O)c3ccc([N+](=O)[O-])cc3)CC1C(=O)N2", "note": "(stereo not drawn)", "values": [
      {"measurement": "ring closure, isolated yield", "setting": "[1]; from C=CCCCCCN(Cc1ccc(OC)cc1)C(=O)N1CC(OC(=O)c2ccc([N+](=O)[O-])cc2)CC1C(=O)NC1(C(=O)OCC)CC1C=C, 15-membered ring, Hoveyda-Grubbs II (5 mol%), then LiOH, 0.74 mM, 2 steps", "value": 61, "unit": "%"}
    ]},
    {"molecule": "COc1ccc2c(OC3CC4C(=O)NC5(C(=O)O)CC5C=CCCCCN(C)C(=O)N4C3)ncnc2c1C", "note": "(stereo not drawn)", "values": [
      {"measurement": "ring closure, isolated yield", "setting": "[1]; [5]", "value": 8, "unit": "%"}
    ]},
    {"molecule": "COc1ccc2c(OC3CC4C(=O)NC5(C(=O)O)CC5C=CCCCCN(C)C(=O)N4C3)nc(-c3ccc(F)cc3)nc2c1C", "note": "(stereo not drawn)", "values": [
      {"measurement": "ring closure, isolated yield", "setting": "[1]; [5]", "value": 20, "unit": "%"}
    ]},
    {"molecule": "Cyclopropanesulfonic acid {17-[2-(4-isopropyl-thiazol-2-yl)-quinazolin-4-yloxy-]-13-methyl-2,14-dioxo-3,13-diaza-tricyclo[13.3.0.0*4,6*]octadec-7-ene-4-carbonyl}-amide", "values": [
      {"measurement": "ring closure, yield after HPLC", "setting": "[2]; 1.67 mM, 15.0 °C", "value": 64, "unit": "%"}
    ]},
    {"molecule": "CN1CCN(c2nc(OC3CC4C(=O)NC5(C(=O)NS(=O)(=O)C6CC6)CC5C=CCCCCN(C)C(=O)C4C3)c3ccccc3n2)CC1", "note": "(stereo not drawn)", "values": [
      {"measurement": "ring closure, yield after HPLC", "setting": "[2]; from 4-[2-(4-Methyl-piperazin-1-yl)-quinazolin-4-yloxy]-cyclopentane-1,2-dicarboxylic acid 1-[(1-cyclopropanesulfonylaminocarbonyl-2-vinyl-cyclopropyl)amide]2-(hex-5-enyl-methyl-amide), 1.61 mM, 150.0 °C", "value": 22, "unit": "%"}
    ]},
    {"molecule": "17-[2-(4-Isopropyl-thiazol-2-yl)-7-methoxy-quinazolin-4-yloxy]-13-methyl-2,14-dioxo-3,13-diaza-tricyclo[13.3.0.0*4,6*]octadec-7-ene-4-carboylic acid ethyl ester", "values": [
      {"measurement": "ring closure, isolated yield", "setting": "[1]; 14-membered ring, Hoveyda-Grubbs II, 1.45 mM, 90.0 °C", "value": 46, "unit": "%"}
    ]},
    {"molecule": "CCOC(=O)C12CC1C=CCCCCN(C)C(=O)C1CC(Oc3nc(-c4ccc(OC)cc4)nc4c(C)c(OC)ccc34)CC1C(=O)N2", "note": "(stereo not drawn)", "values": [
      {"measurement": "ring closure, isolated yield", "setting": "[1]; from C=CCCCCN(C)C(=O)C1CC(Oc2nc(-c3ccc(OC)cc3)nc3c(C)c(OC)ccc23)CC1C(=O)NC1(C(=O)OCC)CC1C=C, 14-membered ring, Hoveyda-Grubbs II, 1.71 mM, 16.0 h", "value": 75, "unit": "%"}
    ]},
    {"molecule": "CN1CCCCC=CC2CC2(C(=O)NS(=O)(=O)C2CC2)NC(=O)C2CC(Oc3nc(N4CCOCC4)nc4ccccc34)CC2C1=O", "note": "(stereo not drawn)", "values": [
      {"measurement": "ring closure, yield after HPLC", "setting": "[2]; from 4-(2-Morpholin-4-yl-quinazolin-4-yloxy)-cyclopentane-1,2-dicarboxylic acid 1-[(1-cyclopropanesulfonylaminocarbonyl-2-vinyl-cyclopropyl)-amide]2-(hex-5-enyl-methyl-amide), 1.63 mM, 150.0 °C", "value": 56, "unit": "%"}
    ]},
    {"molecule": "COc1ccc2c(O[C@@H]3C[C@H]4C(=O)N[C@]5(C(=O)NS(=O)(=O)C6CC6)C[C@H]5/C=C\\CCCCN(C)C(=O)N4C3)nc(-c3cccc(C)n3)nc2c1C", "note": "[Compound 119, Cyclopropanesulfonic acid {17-[7-methoxy-8-methyl-2-(6-methyl-pyridin-2-yl)-quinazolin-4-yloxy]-13-methyl-2,14-dioxo-3,13,15-triazatricyclo[13.3.0.0*4,6*]octadec-7-ene-4-carbonyl}-amide]", "values": [
      {"measurement": "EC50", "setting": "[3]", "value": "0.5 to 199", "unit": "nM"},
      {"measurement": "Ki", "setting": "[4]", "value": "0.1 to 4.9", "unit": "nM"}
    ]},
    {"molecule": "CCOC(=O)C12CC1C=CCCCCN(C)C(=O)C1CC(Oc3nc(-c4cccc(F)c4)nc4c(C)c(OC)ccc34)CC1C(=O)N2", "note": "(stereo not drawn)", "values": [
      {"measurement": "ring closure, isolated yield", "setting": "[1]; from C=CCCCCN(C)C(=O)C1CC(Oc2nc(-c3cccc(F)c3)nc3c(C)c(OC)ccc23)CC1C(=O)NC1(C(=O)OCC)CC1C=C, 14-membered ring, Hoveyda-Grubbs II, 1.49 mM, 16.0 h", "value": 70, "unit": "%"}
    ]},
    {"molecule": "CN1CCCC/C=C\\[C@@H]2C[C@@]2(C(=O)NS(=O)(=O)C2CC2)NC(=O)[C@@H]2C[C@@H](Oc3nc(-c4ccc(C#N)cc4)nc4ccccc34)C[C@H]2C1=O", "note": "[Compound 73, Cyclopropanesulfonic acid {17-[2-(4-cyano-phenyl)-quinazolin-4-yloxy]-13-methyl-2,14-dioxo-3,13-diaza-tricyclo[13.3.0.0*4,6*]octadec-7-ene-4-carbonyl}-amide]", "values": [
      {"measurement": "EC50", "setting": "[3]", "value": "> 10000", "unit": "nM"},
      {"measurement": "Ki", "setting": "[4]", "value": "100 to 1000", "unit": "nM"}
    ]},
    {"molecule": "COc1ccc2c(O[C@@H]3C[C@H]4C(=O)N[C@]5(C(=O)NS(=O)(=O)C6CC6)C[C@H]5/C=C\\CCCCN(C)C(=O)N4C3)nc(-c3ccncc3)nc2c1C", "note": "[Compound 179, Cyclopropanesulfonic acid [17-(7-methoxy-8-methyl-2-pyridin-4-yl-quinazolin-4-yloxy)-13-methyl-2,14-dioxo-3,13,15-triaza-tricyclo[13.3.0.0*4,6*]octadec-7-ene-4-carbonyl]-amide]", "values": [
      {"measurement": "EC50", "setting": "[3]", "value": "0.5 to 199", "unit": "nM"},
      {"measurement": "Ki", "setting": "[4]", "value": "0.1 to 4.9", "unit": "nM"}
    ]},
    {"molecule": "CN1CCCCC=CC2CC2(C(=O)NS(=O)(=O)C2CC2)NC(=O)C2CC(Oc3nc(-c4ccccc4)nc4ccccc34)CC2C1=O", "note": "(stereo not drawn)", "values": [
      {"measurement": "ring closure, yield after HPLC", "setting": "[2]; from 4-(2-Phenyl-quinazolin-4-yloxy)-cyclopentane-1,2-dicarboxylic acid 1-[(1 cyclo-propanesulfonecarbonyl-2-vinylcyclopropyl)-amide]2-(hex-5-enylmethylamide), 1.72 mM, 150.0 °C", "value": 29, "unit": "%"}
    ]},
    {"molecule": "COc1cc2nc(-c3ccccc3)nc(O[C@@H]3C[C@H]4C(=O)N[C@]5(C(=O)NS(=O)(=O)C6CC6)C[C@H]5/C=C\\CCCCN(C)C(=O)[C@@H]4C3)c2cc1C", "note": "[Compound 114]", "values": [
      {"measurement": "EC50", "setting": "[3]", "value": "0.5 to 199", "unit": "nM"},
      {"measurement": "Ki", "setting": "[4]", "value": "0.1 to 4.9", "unit": "nM"}
    ]},
    {"molecule": "COc1ccc2c(O[C@@H]3C[C@H]4C(=O)NC5(C(=O)NS(=O)(=O)C6CC6)C[C@H]5/C=C\\CCCCN(C)C(=O)N4C3)nc(-c3ccc(F)cc3)nc2c1C", "note": "(stereo partly drawn) [Compound 98, Cyclopropanesulfonic acid {17-[2-(4-fluoro-phenyl-(7-methoxy-8-methyl-quinazolin-4-yloxy)-13-methyl-2,14-dioxo-3,13,15-triaza-tricyclo[13.3.0.0*4,6*]octadec-7-ene-4-carbonyl}-amide]", "values": [
      {"measurement": "EC50", "setting": "[3]", "value": "0.5 to 199", "unit": "nM"},
      {"measurement": "Ki", "setting": "[4]", "value": "0.1 to 4.9", "unit": "nM"}
    ]}
  ]
}
